In ChEMBL document CHEMBL1909046, “DrugMatrix in vitro pharmacology data”:

Columns and labels:
[1] = target: Carbonic anhydrase 2 (Homo sapiens, UniProt P00918); assay: DRUGMATRIX: Carbonic Anhydrase II enzyme inhibition (substrate: 4-Nitrophenyl acetate (4-NPA)); format: tissue-based, Erythrocyte; details: erythrocyte; Not Active = under 50% inhibition at 10 µM
[2] = target: T1, Type-2 angiotensin II receptor (Homo sapiens, UniProt P50052); assay: biochemical; format: cell-based, CHO-K1; details: cho-k1; further: in other assays of this panel Not Active means under 50% inhibition at 10 µM
T1 sequence (P50052 whole entry): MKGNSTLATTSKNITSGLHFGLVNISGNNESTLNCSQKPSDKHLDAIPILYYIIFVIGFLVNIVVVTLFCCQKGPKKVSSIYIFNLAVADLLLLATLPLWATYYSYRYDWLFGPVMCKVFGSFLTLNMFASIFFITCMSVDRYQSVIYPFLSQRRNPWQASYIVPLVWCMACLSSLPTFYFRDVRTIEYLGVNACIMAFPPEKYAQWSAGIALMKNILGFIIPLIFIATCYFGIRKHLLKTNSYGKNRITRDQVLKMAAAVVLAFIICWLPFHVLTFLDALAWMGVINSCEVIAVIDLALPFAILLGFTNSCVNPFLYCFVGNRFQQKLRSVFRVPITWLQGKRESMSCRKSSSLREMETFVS

[3] = target: T2, Muscarinic acetylcholine receptor M2 (Homo sapiens, UniProt P08172); format: cell membranes, CHO-K1, Membrane; further: in other assays of this panel Not Active means under 50% inhibition at 10 µM
T2 sequence (P08172 whole entry): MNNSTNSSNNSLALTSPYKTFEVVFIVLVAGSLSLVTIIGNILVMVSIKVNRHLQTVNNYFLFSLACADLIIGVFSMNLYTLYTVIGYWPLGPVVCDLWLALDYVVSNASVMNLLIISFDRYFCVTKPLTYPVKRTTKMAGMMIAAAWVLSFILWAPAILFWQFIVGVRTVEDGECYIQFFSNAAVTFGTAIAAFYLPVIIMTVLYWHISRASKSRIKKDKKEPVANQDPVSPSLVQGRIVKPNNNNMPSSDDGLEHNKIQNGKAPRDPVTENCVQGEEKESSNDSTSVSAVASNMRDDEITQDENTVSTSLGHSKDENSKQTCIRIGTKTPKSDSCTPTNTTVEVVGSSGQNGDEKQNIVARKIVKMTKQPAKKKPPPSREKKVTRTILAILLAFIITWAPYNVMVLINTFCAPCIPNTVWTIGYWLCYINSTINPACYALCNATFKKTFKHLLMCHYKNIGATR

[4] = target: T3, Interstitial collagenase (Homo sapiens, UniProt P03956); assay: biochemical; format: tissue-based, Rheumatoid synovial fibroblasts;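 further: MMP-1 enzyme inhibition assay using a peptide substrate; in other assays of this panel Not Active means under 50% inhibition at 10 µM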
T3 sequence (P03956 whole entry): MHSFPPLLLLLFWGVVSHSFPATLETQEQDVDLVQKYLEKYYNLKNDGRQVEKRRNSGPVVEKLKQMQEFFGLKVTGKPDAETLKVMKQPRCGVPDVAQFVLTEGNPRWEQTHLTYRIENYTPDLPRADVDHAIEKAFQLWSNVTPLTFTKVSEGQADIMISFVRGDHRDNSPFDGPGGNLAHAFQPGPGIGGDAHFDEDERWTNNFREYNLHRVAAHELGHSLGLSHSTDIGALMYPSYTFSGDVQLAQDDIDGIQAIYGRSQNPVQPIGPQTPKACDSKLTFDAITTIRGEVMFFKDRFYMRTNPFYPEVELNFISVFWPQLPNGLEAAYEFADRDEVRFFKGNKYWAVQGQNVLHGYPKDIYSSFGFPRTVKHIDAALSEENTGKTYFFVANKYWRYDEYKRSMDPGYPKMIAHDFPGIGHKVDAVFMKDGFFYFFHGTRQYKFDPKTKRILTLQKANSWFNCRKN

[5] = target: T4, Alpha-2C adrenergic receptor (Homo sapiens, UniProt P18825); assay: DRUGMATRIX: Adrenergic Alpha-2C radioligand binding (ligand: [3H] MK-912); format: cell membranes, Sf9, Membrane; details: sf9
T4 sequence (P18825 whole entry): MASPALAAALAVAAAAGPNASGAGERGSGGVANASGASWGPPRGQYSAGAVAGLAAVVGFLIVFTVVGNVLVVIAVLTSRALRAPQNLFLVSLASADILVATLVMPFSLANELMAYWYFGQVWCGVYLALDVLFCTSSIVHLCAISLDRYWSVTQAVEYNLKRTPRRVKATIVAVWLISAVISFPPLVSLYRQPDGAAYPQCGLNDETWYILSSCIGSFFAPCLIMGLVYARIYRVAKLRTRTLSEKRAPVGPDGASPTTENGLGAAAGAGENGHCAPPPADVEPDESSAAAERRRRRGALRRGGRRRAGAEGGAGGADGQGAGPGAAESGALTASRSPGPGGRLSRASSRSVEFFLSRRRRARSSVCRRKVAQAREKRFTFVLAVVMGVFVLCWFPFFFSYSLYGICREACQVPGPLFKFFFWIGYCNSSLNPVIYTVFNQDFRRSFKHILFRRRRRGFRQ

[6] = DRUGMATRIX: Interleukin IL-1 radioligand binding (ligand: [125I] interleukin 1beta); format: cell membranes, Membrane; details: nih3t3; Not Active = under 50% inhibition at 10 µM
[7] = target: Acetylcholinesterase (Homo sapiens, UniProt P22303); assay: DRUGMATRIX: Acetylcholinesterase enzyme inhibition (substrate: acetylthiocholine); format: cell-based, HEK293; details: hek293; Not Active = under 50% inhibition at 10 µM
Acetylcholinesterase, sequence (P22303 whole entry): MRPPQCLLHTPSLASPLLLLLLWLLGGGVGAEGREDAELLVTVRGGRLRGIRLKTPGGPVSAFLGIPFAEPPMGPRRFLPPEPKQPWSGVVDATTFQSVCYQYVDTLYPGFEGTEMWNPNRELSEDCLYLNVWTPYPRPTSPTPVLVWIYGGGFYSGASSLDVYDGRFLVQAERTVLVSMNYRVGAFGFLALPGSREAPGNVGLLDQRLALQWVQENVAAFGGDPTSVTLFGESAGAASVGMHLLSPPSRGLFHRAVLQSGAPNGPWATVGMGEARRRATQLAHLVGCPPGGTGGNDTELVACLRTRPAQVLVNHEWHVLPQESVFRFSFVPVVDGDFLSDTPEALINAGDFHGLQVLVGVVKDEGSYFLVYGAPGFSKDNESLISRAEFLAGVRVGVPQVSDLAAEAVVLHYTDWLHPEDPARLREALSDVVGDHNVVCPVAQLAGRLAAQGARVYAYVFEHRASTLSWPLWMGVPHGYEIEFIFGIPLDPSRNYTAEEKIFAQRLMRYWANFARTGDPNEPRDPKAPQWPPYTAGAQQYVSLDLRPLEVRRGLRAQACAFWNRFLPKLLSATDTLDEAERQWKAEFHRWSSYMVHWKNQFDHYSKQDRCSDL

**Q.** What does the source list for `CCOC(=O)c1ncn2c1CN(C)C(=O)c1cc(F)ccc1-2` [FLUMAZENIL]?
**A.** IC50 [1]: Not Active; IC50 [2]: Not Active; IC50 ([3]; cho-k1): Not Active; IC50 [4]: Not Active; IC50 [5]: Not Active; IC50 [6]: Not Active; Ki [6]: Not Active; IC50 [7]: Not Active

**Q.** What does the source list for `CC(=O)OCC(=O)[C@@]12OC(C)(C)O[C@@H]1C[C@H]1[C@@H]3C[C@H](F)C4=CC(=O)C=C[C@]4(C)[C@@]3(F)[C@@H](O)C[C@@]12C` [FLUOCINONIDE]?
**A.** IC50 [1]: Not Active; IC50 [2]: Not Active; IC50 ([3]; cho-k1): Not Active; IC50 [4]: Not Active; IC50 [5]: Not Active; IC50 [6]: Not Active; Ki [6]: Not Active; IC50 [7]: Not Active

**Q.** Which IC50 [1] does the source give for `O=C(O)P(=O)(O)O` [FOSCARNET] here?
**A.** Not Active

**Q.** And the IC50 [2]?
**A.** Not Active

**Q.** What about the IC50 ([3]; cho-k1) of the same molecule?
**A.** Not Active

**Q.** And the IC50 [4]?
**A.** Not Active

**Q.** And the IC50 [5]?
**A.** Not Active

**Q.** And the IC50 [6]?
**A.** Not Active

**Q.** What about the Ki [6] of the same molecule?
**A.** Not Active

**Q.** What about the IC50 [7] of the same molecule?
**A.** Not Active

**Q.** What does the source list for `Cc1ccc(C)c(OCCCC(C)(C)C(=O)O)c1` [GEMFIBROZIL]?
**A.** IC50 [1]: Not Active; IC50 [2]: Not Active; IC50 ([3]; cho-k1): Not Active; IC50 [4]: Not Active; IC50 [5]: Not Active; IC50 [6]: Not Active; Ki [6]: Not Active; IC50 [7]: Not Active

**Q.** Which IC50 [1] does the source give for `O=c1c(-c2ccc(O)cc2)coc2cc(O)cc(O)c12` [GENISTEIN] here?
**A.** Not Active

**Q.** What about the IC50 [2] of the same molecule?
**A.** Not Active

**Q.** And the IC50 ([3]; cho-k1)?
**A.** Not Active

**Q.** And the IC50 [4]?
**A.** Not Active

**Q.** And the IC50 [5]?
**A.** Not Active

**Q.** And the IC50 [6]?
**A.** Not Active

**Q.** And the Ki [6]?
**A.** Not Active

**Q.** And the IC50 [7]?
**A.** Not Active

**Q.** Which IC50 [1] does the source give for `CCC1=C(C)CN(C(=O)NCCc2ccc(S(=O)(=O)NC(=O)N[C@H]3CC[C@H](C)CC3)cc2)C1=O` [GLIMEPIRIDE] here?
**A.** Not Active

**Q.** And the IC50 [2]?
**A.** Not Active

**Q.** What about the IC50 ([3]; cho-k1) of the same molecule?
**A.** Not Active

**Q.** What about the IC50 [4] of the same molecule?
**A.** Not Active

**Q.** And the IC50 [5]?
**A.** Not Active

**Q.** And the IC50 [6]?
**A.** Not Active

**Q.** And the Ki [6]?
**A.** Not Active

**Q.** What about the IC50 [7] of the same molecule?
**A.** Not Active

**Q.** Which IC50 [1] does the source give for `Nc1cc(-c2ccncc2)c[nH]c1=O` [INAMRINONE] here?
**A.** Not Active

**Q.** What about the IC50 [2] of the same molecule?
**A.** Not Active

**Q.** What about the IC50 ([3]; cho-k1) of the same molecule?
**A.** Not Active

**Q.** What about the IC50 [4] of the same molecule?
**A.** Not Active

**Q.** And the IC50 [5]?
**A.** Not Active

**Q.** What about the IC50 [6] of the same molecule?
**A.** Not Active

**Q.** And the Ki [6]?
**A.** Not Active

**Q.** And the IC50 [7]?
**A.** Not Active

**Q.** For `CCCCC1=NC2(CCCC2)C(=O)N1Cc1ccc(-c2ccccc2-c2nnn[nH]2)cc1` [IRBESARTAN], which IC50 [1] is on record?
**A.** Not Active

**Q.** And the IC50 [2]?
**A.** Not Active

**Q.** What about the IC50 ([3]; cho-k1) of the same molecule?
**A.** Not Active

**Q.** What about the IC50 [4] of the same molecule?
**A.** Not Active

**Q.** And the IC50 [5]?
**A.** Not Active

**Q.** What about the IC50 [6] of the same molecule?
**A.** Not Active

**Q.** What about the Ki [6] of the same molecule?
**A.** Not Active

**Q.** And the IC50 [7]?
**A.** Not Active

**Q.** Which results are given for `CN1CCC(=C2c3ccccc3CC(=O)c3sccc32)CC1` [KETOTIFEN]?
**A.** IC50 [1]: Not Active; IC50 [2]: Not Active; IC50 ([3]; read-out: IC50): 838 nM; Ki ([3]; read-out: Ki): 298 nM; IC50 [4]: Not Active; IC50 [5]: Not Active; IC50 [6]: Not Active; Ki [6]: Not Active; IC50 [7]: Not Active

**Q.** With `N[C@@H](Cn1ccc(=O)c(O)c1)C(=O)O` [L-MIMOSINE] as the molecule, how does the IC50 [1] read?
**A.** Not Active

**Q.** And the IC50 [2]?
**A.** Not Active

**Q.** And the IC50 ([3]; cho-k1)?
**A.** Not Active

**Q.** What about the IC50 [4] of the same molecule?
**A.** Not Active

**Q.** And the IC50 [5]?
**A.** Not Active

**Q.** And the IC50 [6]?
**A.** Not Active

**Q.** And the Ki [6]?
**A.** Not Active

**Q.** And the IC50 [7]?
**A.** Not Active

**Q.** Which IC50 [1] does the source give for `C[N+](C)(C)C[C@H](O)CC(=O)[O-]` [LEVOCARNITINE] here?
**A.** Not Active

**Q.** What about the IC50 [2] of the same molecule?
**A.** Not Active

**Q.** And the IC50 ([3]; cho-k1)?
**A.** Not Active

**Q.** What about the IC50 [4] of the same molecule?
**A.** Not Active

**Q.** What about the IC50 [5] of the same molecule?
**A.** Not Active

**Q.** What about the IC50 [6] of the same molecule?
**A.** Not Active

**Q.** And the Ki [6]?
**A.** Not Active

**Q.** And the IC50 [7]?
**A.** Not Active
